# Source: patent publication US20260287586A1, “METHODS OF TREATING TKI-RESISTANT AND SDH-DEFICIENT GIST” (priority 2023, published 2026)
# “And” between values parts separate entries of the source, which are not always exact repeats. Equal entries are not always repeated. “Also recorded” adds a separate entry of the source.
# Legend:
# [1] = Phase 1 trial HQP1351-SJ-0003 of olverembatinib: safety (adverse events, DLT, MTD/RP2D); assay type: in vivo, human; details: for Abdominal pain, treatment-emergent AE / Anemia, treatment-emergent AE / Constipation, treatment-emergent AE / Fatigue, treatment-emergent AE / Hyperuricemia, treatment-emergent AE / Increased alanine aminotransferase, treatment-emergent AE / Increased aspartate aminotransferase, treatment-emergent AE / Increased leukocyte count, treatment-emergent AE / Increased neutrophil count, treatment-emergent AE / Pyrexia, treatment-emergent AE: all patients N = 66
# From the text: The dose escalation aspect of the study enrolled patients with advanced and/or metastatic GIST or other solid tumors that were refractory or had relapsed after treatment with at least one TKI.
# Eligible patients were adults (≥18 years) who had advanced and/or metastatic GISTs or other solid tumors confirmed by histology and/or cytology. The definition of SDH-deficient GIST was based on pathological phenotype with negative immunohistochemical staining for SDHB. Also required for study enrollment were Eastern Cooperative Oncology Group performance status (ECOG PS)≤2; and adequate renal, hepatic, cardiac, and bone marrow function. A full list of inclusion and exclusion criteria is in the protocol. Enrollment trends, ongoing review of study data, and evolving knowledge regarding the GIST treatment paradigm informed the study sponsor's medical director's and investigators' decision to analyze the SDH-deficient GIST patient subgroup separately.
# Based on encouraging initial activity and favorable tolerability (Qiu, H., et al., J. Clin. Oncol. 40, 11513 (2022)), additional patients with SDH-deficient GIST were enrolled to further explore efficacy, and patients with TKI-naïve SDH-deficient GIST and adolescent patients (aged 12-18 years old) with SDH-deficient GIST were permitted. After data from the dose-escalation part of the study were reviewed during a meeting of the principal investigators and a postmarket dose was recommended to treat CML, all adult patients received 40 mg QOD (determined RP2D dose), and adolescent patients received 20 to 40 mg QOD based on body weight. If body weight was at least 40 kg, patients received 40 mg QOD; if within 30-40 kg, 30 mg QOD; and, if within 20-30 kg, 20 mg QOD. Patients with SDH-deficient malignant paraganglioma who had failed at least one treatment and were without appropriate treatment (as judged by investigators) were also enrolled. Treatment could continue until precluded by toxicity, noncompliance, withdrawal of consent, physician decision, progressive disease, death, or closure of the study. All protocol modifications, including those increasing the number of patients and cohorts in the dose-expansion aspect, are established in the trial protocol version dated May 27, 2022.
# Physical examination and adverse events (AEs) were evaluated at each follow-up visit (day −28~day −1 after signed informed consent form); on days 1, 8, 15, and 22 during cycles 1 and 2; and on days 1 and 15 in cycle 3 and all subsequent cycles, up to 30 days after the final dose. All AEs were graded according to the US National Cancer Institute (NCI) Common Terminology Criteria for Adverse Events (CTCAE; version 4.03). Clinical laboratory investigations for routine blood examinations and serum chemistry parameters were performed during every cycle (on day 1); cycles 1 and 2 (on days 8, 15, and 22); and 30 days after the last dose of treatment. Urinalysis, coagulation, cardiac troponin I/T, lipase, amylase, and electrocardiograms were done at baseline; during cycles 1 and 2 (on days 1 and 15); cycle 3, 5, 7, and 9; every 3 cycles after cycle 9 (on day 1); and 14 days after the last dose of treatment. All patients underwent tumor imaging for response assessment via computed tomography or magnetic resonance imaging at screening and every two cycles (8 weeks) until progression or discontinuation. Target and nontarget lesions were assessed per Response Evaluation Criteria in Solid Tumors version 1.1 (RECIST v1.1).
# The data cutoff for this analysis was Dec. 27, 2023. The safety population included all patients who received at least one dose of olverembatinib. The SDH-deficient GIST population (prespecified subgroup) included patients in the safety population. MTD was defined as the highest dose level with no more than one dose-limiting toxicity in six patients.
# [2] = tested on: PC12 or PC12 #5F7 (SDHB KD) cells; assay: Cell death assay (AO/PI staining); assay type: cell-based, rat; details: 24 hours exposure; FIG. 2B left
# Protocol: Cells were extracted from SDH-deficient patient tumor tissues, seeded into 96-well plates, and incubated for 24 hours in GIST culture medium. […] Right panel, Colony formation assay in renal carcinoma cells 7860 (SDHB-wild-type) and OS-RC-2 (SDHB-deficient). Cells were seeded into 6-well plates and incubated overnight in complete culture medium.
# Rat pheochromocytoma cells (PC12 or PC12 SDHB KD cells PC12 #5F7) were seeded into 24-well plates and incubated overnight in complete culture medium. […] The cell suspension was mixed at a 1:1 ratio with Viastain™ AOPI Staining solution (acridine orange/propidium iodide, #2210170205, Nexelcom Bioscience, Lawrence, MA, USA). After staining, dead cells were counted on a Cellometer® Auto 2000 Cell Counter (Nexelcom).
# [3] = reported in ≥2 patients, N = 66
smiles,measurement,setting,value
"Cc1ccc(C(=O)Nc2ccc(CN3CCN(C)CC3)c(C(F)(F)F)c2)cc1C#Cc1cnc2[nH]ncc2c1 [Olverembatinib, olverembatinib]",dose-limiting toxicities,[1]; 20-50 mg QOD,No dose-limiting toxicities were reported; also recorded: No dose-limiting toxicity was observed
same,maximum tolerated dose (MTD),[1]; 20-50 mg QOD,not reached
same,dose reductions due to TRAEs,[1]; N = 66,dose reductions in two patients
same,patients who experienced grade ≥3 TRAEs,[1]; N = 66,13.6%
same,patients who experienced treatment-related adverse events (TRAEs),[1]; N = 66,93.9%
same,treatment-related serious adverse events,[1]; N = 66,7.6%
same,"Anemia, treatment-related serious AE","[1]; N = 66, value is N",2 N (%)
same,"Coronary sclerosis, treatment-related serious AE","[1]; N = 66, value is N",1 N (%)
same,"Intestinal obstruction, treatment-related serious AE","[1]; N = 66, value is N",1 N (%)
same,"Leukemoid reaction, treatment-related serious AE","[1]; N = 66, value is N",1 N (%)
same,subjects who experienced treatment-emergent adverse events (TEAEs),"[1]; all 66 subjects, oral 20-50 mg QOD",100.0%
same,"Abdominal pain, treatment-related AE","[1]; any grade, N = 66, value is N",3 N (%)
same,"Anemia, treatment-related AE","[1]; any grade, N = 66, value is N",9 N (%)
same,"Constipation, treatment-related AE","[1]; any grade, N = 66, value is N",23 N (%)
same,"Coronary sclerosis, treatment-related AE","[1]; any grade, N = 66, value is N",1 N (%)
same,"Decreased neutrophil count, treatment-related AE","[1]; any grade, N = 66, value is N",3 N (%)
same,"Fatigue, treatment-related AE","[1]; any grade, N = 66, value is N",18 N (%)
same,"Hypertension, treatment-related AE","[1]; any grade, N = 66, value is N",3 N (%)
same,"Hyperuricemia, treatment-related AE","[1]; any grade, N = 66, value is N",12 N (%)
same,"Hypoalbuminemia, treatment-related AE","[1]; any grade, N = 66, value is N",10 N (%)
same,"Increased CRP, treatment-related AE","[1]; any grade, N = 66, value is N",11 N (%)
same,"Increased WBC count, treatment-related AE","[1]; any grade, N = 66, value is N",27 N (%)
same,"Increased alanine aminotransferase, treatment-related AE","[1]; any grade, N = 66, value is N",20 N (%)
same,"Increased aspartate aminotransferase, treatment-related AE","[1]; any grade, N = 66, value is N",23 N (%)
same,"Increased creatinine, treatment-related AE","[1]; any grade, N = 66, value is N",9 N (%)
same,"Increased neutrophil count, treatment-related AE","[1]; any grade, N = 66, value is N",22 N (%)
same,"Increased platelet count, treatment-related AE","[1]; any grade, N = 66, value is N",7 N (%)
same,"Intestinal obstruction, treatment-related AE","[1]; any grade, N = 66, value is N",2 N (%)
same,"Leukemoid reaction, treatment-related AE","[1]; any grade, N = 66, value is N",1 N (%)
same,"Melanocytic nevi, treatment-related AE","[1]; any grade, N = 66, value is N",15 N (%)
same,"Abdominal pain, treatment-emergent AE",[1]; any grade,15 N (%) and 15 (22.7) N (%)
same,"Anemia, treatment-emergent AE",[1]; any grade,31 N (%) and 31 (47.0) N (%)
same,"Constipation, treatment-emergent AE",[1]; any grade,27 N (%) and 27 (40.9) N (%)
same,"Fatigue, treatment-emergent AE",[1]; any grade,20 (30.3) N (%)
same,"Hyperuricemia, treatment-emergent AE",[1]; any grade,31 (47.0) N (%)
same,"Increased alanine aminotransferase, treatment-emergent AE",[1]; any grade,25 N (%) and 25 (37.9) N (%)
same,"Increased aspartate aminotransferase, treatment-emergent AE",[1]; any grade,31 N (%) and 31 (47.0) N (%)
same,"Increased leukocyte count, treatment-emergent AE",[1]; any grade,32 N (%) and 32 (48.5) N (%)
same,"Increased neutrophil count, treatment-emergent AE",[1]; any grade,25 N (%) and 25 (37.9) N (%)
same,"Pyrexia, treatment-emergent AE",[1]; any grade,28 N (%) and 28 (42.4) N (%)
same,"Abdominal pain, treatment-related AE","[1]; grades 3-5, N = 66, value is N",1 N (%)
same,"Anemia, treatment-related AE","[1]; grades 3-5, N = 66, value is N",1 N (%)
same,"Constipation, treatment-related AE","[1]; grades 3-5, N = 66, value is N",0 N (%)
same,"Coronary sclerosis, treatment-related AE","[1]; grades 3-5, N = 66, value is N",1 N (%)
same,"Decreased neutrophil count, treatment-related AE","[1]; grades 3-5, N = 66, value is N",2 N (%)
same,"Fatigue, treatment-related AE","[1]; grades 3-5, N = 66, value is N",1 N (%)
same,"Hypertension, treatment-related AE","[1]; grades 3-5, N = 66, value is N",1 N (%)
same,"Hyperuricemia, treatment-related AE","[1]; grades 3-5, N = 66, value is N",0 N (%)
same,"Hypoalbuminemia, treatment-related AE","[1]; grades 3-5, N = 66, value is N",0 N (%)
same,"Increased CRP, treatment-related AE","[1]; grades 3-5, N = 66, value is N",0 N (%)
same,"Increased WBC count, treatment-related AE","[1]; grades 3-5, N = 66, value is N",0 N (%)
same,"Increased alanine aminotransferase, treatment-related AE","[1]; grades 3-5, N = 66, value is N",1 N (%)
same,"Increased aspartate aminotransferase, treatment-related AE","[1]; grades 3-5, N = 66, value is N",1 N (%)
same,"Increased creatinine, treatment-related AE","[1]; grades 3-5, N = 66, value is N",0 N (%)
same,"Increased neutrophil count, treatment-related AE","[1]; grades 3-5, N = 66, value is N",0 N (%)
same,"Increased platelet count, treatment-related AE","[1]; grades 3-5, N = 66, value is N",0 N (%)
same,"Intestinal obstruction, treatment-related AE","[1]; grades 3-5, N = 66, value is N",1 N (%)
same,"Leukemoid reaction, treatment-related AE","[1]; grades 3-5, N = 66, value is N",1 N (%)
same,"Melanocytic nevi, treatment-related AE","[1]; grades 3-5, N = 66, value is N",0 N (%)
same,"Abdominal pain, treatment-emergent AE",[1]; grades 3-5,1 (1.5) N (%)
same,"Anemia, treatment-emergent AE",[1]; grades 3-5,4 (6.1) N (%)
same,"Constipation, treatment-emergent AE",[1]; grades 3-5,0 N (%)
same,"Fatigue, treatment-emergent AE",[1]; grades 3-5,1 (1.5) N (%)
same,"Hyperuricemia, treatment-emergent AE",[1]; grades 3-5,1 (1.5) N (%)
same,"Increased alanine aminotransferase, treatment-emergent AE",[1]; grades 3-5,2 (3.0) N (%)
same,"Increased aspartate aminotransferase, treatment-emergent AE",[1]; grades 3-5,2 (3.0) N (%)
same,"Increased leukocyte count, treatment-emergent AE",[1]; grades 3-5,0 N (%)
same,"Increased neutrophil count, treatment-emergent AE",[1]; grades 3-5,0 N (%)
same,"Pyrexia, treatment-emergent AE",[1]; grades 3-5,0 N (%)
same,patients who required treatment interruption,[1]; of 66 patients,31.8%
same,RP2D,[1]; on alternate days (QOD),40 mg
same,tolerability,[1]; patients in the phase 1 trial,well tolerated
same,"Anemia, serious treatment-emergent AE",[1]; [3],2 (3.0) N (%)
same,"Intestinal obstruction, serious treatment-emergent AE",[1]; [3],5 (7.6) N (%)
same,cell death activity in SDHB KD versus parental cells,[2],dose-dependently more potent activity in PC12 #5F7 than in parental PC12 cells
